Measurements: ChEMBL document CHEMBL4196110, “Covalent Inhibitors of the TEC Family of Kinases and Their Methods of Use” (ACS Med Chem Lett, 2018)
pIC50: −log10 of the molar value.

These compounds were tested against Tyrosine-protein kinase BTK (Homo sapiens, UniProt Q06187) (assay: Inhibition of BTK (unknown origin) using fluorescently labeled peptide as substrate after 3 hrs by microfluidic mobility shift assay).
Chain of Tyrosine-protein kinase BTK (Q06187 whole entry): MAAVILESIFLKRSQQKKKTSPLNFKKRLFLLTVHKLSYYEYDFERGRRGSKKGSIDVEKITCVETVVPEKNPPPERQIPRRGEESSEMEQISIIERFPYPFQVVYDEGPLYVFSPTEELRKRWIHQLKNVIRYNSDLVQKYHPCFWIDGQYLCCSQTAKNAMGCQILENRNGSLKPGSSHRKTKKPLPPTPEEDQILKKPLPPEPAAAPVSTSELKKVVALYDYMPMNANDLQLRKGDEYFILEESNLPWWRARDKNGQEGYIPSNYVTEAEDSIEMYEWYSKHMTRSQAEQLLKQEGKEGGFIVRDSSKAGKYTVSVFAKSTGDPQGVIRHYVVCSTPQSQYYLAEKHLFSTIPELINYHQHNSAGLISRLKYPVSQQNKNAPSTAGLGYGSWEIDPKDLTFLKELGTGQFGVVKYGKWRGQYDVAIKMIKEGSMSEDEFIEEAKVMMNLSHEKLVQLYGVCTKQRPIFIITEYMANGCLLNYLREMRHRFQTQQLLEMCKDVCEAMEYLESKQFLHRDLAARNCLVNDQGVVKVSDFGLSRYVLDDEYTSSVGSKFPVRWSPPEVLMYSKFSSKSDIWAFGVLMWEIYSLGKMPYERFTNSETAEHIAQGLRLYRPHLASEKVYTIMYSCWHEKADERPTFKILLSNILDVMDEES

pIC50 | SMILES
9.20 | C=CC(=O)N1CC[C@]2(C1)C[C@H](n1c(NC(=O)c3ccc(-c4ccnc(N)c4)s3)nc3ccccc31)C2
9.21 | C=CC(=O)N1CC[C@]2(C1)C[C@H](n1c(NC(=O)c3ccc(-c4cnco4)s3)nc3cc(NC)ccc31)C2
8.36 | C=CC(=O)N1CC[C@]2(C1)C[C@H](n1c(NC(=O)c3ccc(C(F)F)s3)nc3cc(CN[C@@H](C)C(C)(C)C)ccc31)C2
